Assay [1] deals with Pseudomonas aeruginosa PA14 gacS^− biofilms. In words: Frequency of SCV cells arising from 24-h biofilms exposed for 18 h. In kind it is cell-based. The following applies: for No. of survivors / Log-survival / SCV frequency: LB broth, overnight (18 h).
Assay [2] shares this test system. The assay is described as above. In kind it is cell-based. The following applies: for frequency of SCVs (phenotypic variants) among surviving cells, in words: 18 h exposure of 24-h biofilms; for Log-survival / SCV frequency: LB broth, antibiotic 1.25 μg mL^−1, overnight (18 h). As to the method:
In an alternative set of experiments, the frequency of SCV cells arising from 24-h biofilms of P. aeruginosa PA14 gacS was evaluated. Antibiotics were diluted from stock solutions into LB broth to obtain final concentrations of […]. These were arranged in triplicate in a micro-titre plate. Biofilms were incubated in these low concentrations of antibacterials for 18 h at 35° C. and 95% relative humidity. Goat and human serum were also assayed in this array, and were kind gifts from The Life and Environmental Sciences Animal Care Facility at the University of Calgary, Department of Biological Sciences. After exposure, biofilms were treated in a manner identical to that described above.
Frequency of phenotypic variation. During the course of susceptibility assays, the proportion of SCV cells recovered from biofilms after exposure to Ag^+ or H2O2 was increased relative to the corresponding growth controls. It was queried whether this may be true for other antimicrobial agents or growth conditions. An array of clinically used antibiotics, saline, and goat and human sera were examined for an ability to select for these SCVs from 24-h biofilms of P. aeruginosa PA14 gacS. Biofilms were exposed to these agents for 18 h and each assay was performed in triplicate. Viable cell counts were determined for each exposure condition, and log-survival was determined. The proportion of SCV cells in bacterial populations recovered from these exposure conditions was calculated as the mean of the proportions from each individual trial.

Assay [3] relates to Pseudomonas aeruginosa PA14 gacS^−. In words: MIC determination, planktonic cells shed from biofilms (MBEC P&G device). In kind it is cell-based. The protocol: (§1) Antimicrobial susceptibility testing. Antibiotic, metal and biocide susceptibility tests were performed. Antimicrobials were arranged into arrays in microtitre plates that typically consisted of serial two-fold dilutions along the rows of wells (the challenge plates). The first and last wells of every row were used as sterility and growth controls, respectively. […] Biofilms were rinsed with PBS (to remove loosely adherent planktonic cells) and inserted into the challenge plates. After exposure, biofilms were rinsed once in PBS and inserted into microtitre plates containing […] of recovery medium in each well (LB broth, 5 mM GSH, 5 mM L-cys, 1% v/v tween-20). These biofilms were disrupted into the recovery medium using a sonicator, and the recovered cells were serially diluted and plated for viable cell counting. Spot plates from these experiments were incubated for a minimum of 36 h at 35° C. before enumeration. Minimum inhibitory concentration (MIC) values were determined by reading the optical density at 650 nm (OD650) of challenge plates after 72 h at 35° C. using a THERMOmax microplate reader with SOFTMAX PRO data analysis software (Molecular Devices, Sunnyvale, Calif.).
(§2) For susceptibility testing, growth-curve data were used to calibrate incubation times to produce biofilms of similar cell density. […] In this model system, planktonic cells shed from the surface of biofilms served as the inoculum for MIC determinations.

The subject of assay [4] is Pseudomonas aeruginosa PA14 SCV. Described as above. In kind it is cell-based. The protocol: as §1, §2
Assay [5] relates to Pseudomonas aeruginosa PA14 SCV biofilms. Put plainly: Biofilm susceptibility testing (viable cell counts, log-killing, MBEC99.9). In kind it is cell-based.
Excerpt: (§3) Biofilm formation. Biofilms were aerobically cultivated using the MBEC high-throughput (HTP) or Physiology and Genetics (P&G) device (Innovotech, Edmonton, Canada) as described in the manufacturer's instructions and by Ceri et al. (1999). To summarize, the parts of this batch culture apparatus were used in two ways. The top half of the plastic MBEC™-HTP device is a lid with 96 polystyrene pegs that also fits over a standard 96-well microtitre plate. For Biofilm growth, the bottom half was either (1) a corrugated trough that guided 22 mL of inoculum across the pegs when the device was placed on a rocker at 3.5 rocks per min (HTP format), or (2) a microtitre plate with […] of inoculum in each well that was placed on a gyrorotary shaker at 150 r.p.m. (P&G format). For either assay format, the inoculum was prepared to c. 10^7CFU/mL1 of the desired strain and the inoculated device was incubated at 35° C. and 95% relative humidity for the required time. Unless otherwise noted, all experiments utilized the MBEC P&G assay. Pegs from the devices were collected at specific time points for scanning electron microscopy and scanning confocal laser microscopy. Biofilm cell densities were evaluated by breaking pegs from the lid of the MBEC device with sterile pliers, rinsing the peg in PBS, and subsequent viable-cell counting as described above. PBS containing the […] surfactant Tween-20 (1% v/v) was used to assist in recovery of bacteria from the peg surfaces. Pegs were sonicated for 30 min in an Aquasonic model 250HT ultrasonic cleaner (VWR International, Mississauga, Canada). Samples of broth culture were collected at the same time points and viable cell counts were determined in a similar manner.
as §1, §2

Assay [6] relates to Pseudomonas aeruginosa PA14 gacS^− biofilms. The description is as above. Type of assay: cell-based.
Excerpt: as §3, §1, §2

Assay [7] concerns Pseudomonas aeruginosa PA14 wild-type biofilms. Type of assay: cell-based.
Excerpt: as §3, §1, §2

Assay [8] relates to Pseudomonas aeruginosa PA14 wild-type. In words: microbe, parasite or virus in culture. In kind it is cell-based. The note with it: Pseudomonas aeruginosa, PA14, 72 h, read-out: MIC72 h. The protocol:
as §1, §2

Assay [9] relates to P. aeruginosa PA14 gacA biofilms. In words: Antibiotic susceptibility profiling of biofilms with the MBEC device. Type of assay: cell-based, Pseudomonas aeruginosa. The note with it: in words. As to the method:
Growth Conditions, Sample Analysis and Bio-Assays of Pseudomonas aeruginosa. Biofilm and planktonic growth studies were performed using the Calgary Biofilm Device (CBD) (MBEC™ Biofilm Technologies Limited). Pseudomonas aeruginosa PA14 wild type, gacA and toxA strains were grown for 24 hours in Tryptic Soy Broth (BDH). Biofilm and planktonic populations were sampled at points.
Sampling of biofilm populations was achieved by dislodging a peg from the 96 peg lid, whereas planktonic populations were sampled by removing an aliquot from the growth vessel. Biofilms were disrupted to release individual component cells by sonication. Cell counts of both populations were determined by serial dilution in 0.9% saline and spot plating on Tryptic Soy Agar plates (BDH). Antibiotic susceptibility profiling of P. aeruginosa PA14 wild type, toxA and gacA strains was performed using the MBEC™ device as per manufacturer's instructions (MBEC™ Biofilm Technologies Limited).

The mark [10] stands for this setting: LB broth, 30 μg mL^−1, 2 h exposure.

The source of these data is patent publication US20080075730A1, “Methods and compositions for treating biofilms” (priority 2003, published 2008).

Values after ≈ are worked out from the molar mass of the structure shown.

As for `CO/N=C(\C(=O)N[C@@H]1C(=O)N2C(C(=O)O)=C(CSc3nc(=O)c(O)nn3C)CS[C@H]12)c1csc(N)n1` [Ceftrioxone], in assay [1] (antibiotic 1.25 μg mL^−1), the No. of survivors is given as 6.8 ± 0.5 log10 CFU peg^−1. For the same compound, in assay [2], the “frequency of SCVs (phenotypic variants) among surviving cells, in words” value (“frequency of SCVs” below) is listed as “approximately one in three”; the Log-survival result was “+0.4 ± 0.5 log10 CFU peg^−1”; the SCV frequency stood at 29%.
`OO` [H2O2, hydrogen peroxide]: the MIC in assay [3] (Pseudomonas aeruginosa, PA14, gacS^−, planktonic cells, OD650 after 72 h at 35° C., mean ± SD of four trials, read-out: MIC72 h) was 45 ± 16 µg/mL (≈ 1.32 mM); in assay [4] (Pseudomonas aeruginosa, PA14, SCV, planktonic cells, OD650 after 72 h at 35° C., mean ± SD of four trials, read-out: MIC72 h), 1880 µg/mL (≈ 55.1 mM); in [8], 938 µg/mL (≈ 27.6 mM). In addition, the planktonic cell susceptibility entry is reported as “hypersensitive” in assay [3] (planktonic PA14 gacS, in words) and “highly resistant” in assay [4] (planktonic PA14 SCV, by comparison, in words). The MBEC99.9 turned out to be 293 ± 203 ppm in assay [5] (SCV biofilms, 2 h exposure, 3 log10 reduction in viable cells); 22 ± 14 ppm in assay [6] (gacS^− biofilms, 2 h exposure, 3 log10 reduction in viable cells); 352 ± 135 ppm in assay [7]. Besides, in assay [5] (in words), the “biofilm survival at subMBEC99.9 concentrations relative to the wild-type strain” value was “increased survival”. The same compound returned a Log-survival in [6] (setting [10]) of −3.8 ± 1.1 log10 CFU peg^−1. The same compound had a No. of survivors in assay [6] (setting [10]) of 1.2 ± 1.1 log10 CFU peg^−1. Further, in assay [6] (setting [10]), the SCV frequency was determined as 8%. Further, the “proportion of SCV cells recovered from biofilms after exposure, relative to growth controls” value in assay [6] (susceptibility assays, in words) is recorded as “increased”.
`C[C@H]1[C@H](NC(=O)/C(=N\OC(C)(C)C(=O)O)c2csc(N)n2)C(=O)N1S(=O)(=O)O` [Azetronam] showed a No. of survivors in assay [1] (antibiotic 1.25 μg mL^−1) of 4.5 ± 0.5 log10 CFU peg^−1. In assay [2], the Log-survival is −2.6 ± 0.5 log10 CFU peg^−1 and the SCV frequency is recorded as 24%.
With `CCN1CCN(C(=O)N[C@@H](C(=O)N[C@@H]2C(=O)N3[C@@H]2SC(C)(C)[C@@H]3C(=O)O)c2ccccc2)C(=O)C1=O` [piperacillin], the “frequency of SCVs” value in assay [2] is “approximately one in three”. The “biofilm resistance relative to PA14 wild type or toxA control strain” value in assay [9] was “moderately decreased resistance”.
Consider `NCC[C@H](O)C(=O)N[C@@H]1C[C@H](N)[C@@H](O[C@H]2O[C@H](CN)[C@@H](O)[C@H](O)[C@H]2O)[C@H](O)[C@H]1O[C@H]1O[C@H](CO)[C@@H](O)[C@H](N)[C@H]1O` [Amikacin], for which, in [1] (antibiotic 5 μg mL^−1), the Log-survival is reported as −2.8 ± 0.6 log10 CFU peg^−1, the No. of survivors is recorded as 3.6 ± 0.6 log10 CFU peg^−1 and the SCV frequency is reported as 23%. Further, the “frequency of SCVs” value in [2] is reported as “approximately one in five”.
In assay [1] (antibiotic 5 μg mL^−1), `CC[C@H]1OC(=O)[C@H](C)[C@@H](O[C@H]2C[C@@](C)(OC)[C@@H](O)[C@H](C)O2)[C@H](C)[C@@H](O[C@@H]2O[C@H](C)C[C@H](N(C)C)[C@H]2O)[C@](C)(O)C[C@@H](C)C(=O)[C@H](C)[C@@H](O)[C@]1(C)O` [Erythromicin] showed a Log-survival of −0.1 ± 0.3 log10 CFU peg^−1, a No. of survivors of 6.4 ± 0.3 log10 CFU peg^−1 and an SCV frequency of 0%. The “selection for SCVs / increase of the frequency of SCV cells compared with growth controls” value in assay [2] (in words) is on record as “in no instances”. Besides, the “biofilm resistance relative to PA14 wild type or toxA control strain” value in [9] is recorded as “moderately decreased resistance”.
As for `CC[C@H]1OC(=O)[C@H](C)[C@@H](O[C@H]2C[C@@](C)(OC)[C@@H](O)[C@H](C)O2)[C@H](C)[C@@H](O[C@@H]2O[C@H](C)C[C@H](N(C)C)[C@H]2O)[C@](C)(O)C[C@@H](C)CN(C)[C@H](C)[C@@H](O)[C@]1(C)O` [azythromycin], the “biofilm resistance relative to PA14 wild type or toxA control strain” value in assay [9] is on record as “moderately decreased resistance”.
For the compound `C[C@@H](O)[C@H]1C(=O)N2C(C(=O)O)=C(SCCN=CN)C[C@H]12` [Imipenem], in assay [1] (antibiotic 1.25 μg mL^−1), the No. of survivors was 2.7 ± 1.0 log10 CFU peg^−1. Also, in assay [2], the Log-survival is given as −3.8 ± 1.0 log10 CFU peg^−1 and the SCV frequency was 0%.
Turning to polymixin B, in [9], the “biofilm resistance relative to PA14 wild type or toxA control strain” value was “moderately decreased resistance”.
With `O=C(N[C@H](CO)[C@H](O)c1ccc([N+](=O)[O-])cc1)C(Cl)Cl` [chloramphenicol], the “biofilm resistance relative to PA14 wild type or toxA control strain” value in assay [9] was “moderately decreased resistance”.
As to `CO[C@H]1/C=C/O[C@@]2(C)Oc3c(C)c(O)c4c(O)c(c(/C=N/N5CCN(C)CC5)c(O)c4c3C2=O)NC(=O)/C(C)=C\C=C\[C@H](C)[C@H](O)[C@@H](C)[C@@H](O)[C@@H](C)[C@H](OC(C)=O)[C@@H]1C` [Rifampicin], in [1] (5 μg/mL), the “cells killed from the biofilm population” value is listed as 0.7 log10 cells. In assay [1] (antibiotic 5 μg mL^−1), this compound registered a Log-survival of −0.7 ± 0.3 log10 CFU peg^−1, a No. of survivors of 5.7 ± 0.3 log10 CFU peg^−1 and an SCV frequency of 58%.
`NC[C@H]1O[C@H](O[C@H]2[C@H](O)[C@@H](O[C@H]3O[C@H](CO)[C@@H](O)[C@H](N)[C@H]3O)[C@H](N)C[C@@H]2N)[C@H](N)C[C@@H]1O` [Tobramicin] showed a No. of survivors in assay [1] (antibiotic 1.25 μg mL^−1) of 5.4 ± 0.5 log10 CFU peg^−1. Further, in [2], the “frequency of SCVs” value is recorded as “approximately one in five”; the Log-survival is recorded as −1.0 ± 0.5 log10 CFU peg^−1; the SCV frequency stood at 14%.
Consider `Cc1onc(-c2ccccc2)c1C(=O)N[C@@H]1C(=O)N2[C@@H]1SC(C)(C)[C@@H]2C(=O)O` [Oxacilin], for which the No. of survivors in [1] (antibiotic 1.25 μg mL^−1) stood at 5.6 ± 0.6 log10 CFU peg^−1. Besides, in [2], the “frequency of SCVs” value is reported as “approximately one in three”; the Log-survival is reported as −0.9 ± 0.6 log10 CFU peg^−1; the SCV frequency came out at 32%.
